Test results: PMC11868579 (Nature Communications, 2024)

Tests used:
SW620 cells = experiment: CellTiter-Blue cell viability, SW620; type: cell-based, human; details: SW620, 4 days
Protocol: Cell viability was measured by CellTiter-Blue® Cell Viability Assay. Cells were seeded in 96 well plates (Corning, cat#353072) and left overnight. Compounds were added at a range of concentrations and plates incubated at 37 °C for 96 hr. Cell titre blue reagent (Promega, Hampshire, UK, cat# G8081) was added (5 μl/well) and incubated for a further 2 h at 37 °C. Fluorescence (579Ex/584Em) was measured using a PHERAstar plate reader.
Supplementary Fig. 10 Determination of the effects of compound 4 on protein synthesis and viability. a HEK293 cells were transfected with protein synthesis reporter expressing bicistonic mRNA with a cap-dependent luciferase reporter and a cap-independent luciferase driven by a viral IRES. Cells were treated with 1 or 10 µM with compound 4 for 24 hr. Luminescence was measured using the Dual-glo luciferase assay (mean ± SEM from 3 biological replicates). b SW620 cells were transfected with a c-Myc-regulated firefly luciferase expression reporter or a constitutive CMV promoter-regulated renilla luciferase reporter. Cells were treated for 24 hr with 1 or 10 µM compound 4 or the […] kinase inhibitor AZD8055 as positive control (mean ± SEM from 3 biological replicates). […]
vs 1 µM AZD8055). c Cell viability measured by cell titre blue assay was performed in SW620 cells treated with compound 4 for 4 days (mean ± SEM from 3 biological replicates). […]

eIF4E L85R = target: T1, eIF4E L85R (Homo sapiens, UniProt P06730, L85R); experiment: CETSA in eIF4E-dTAG model expressing L85R eIF4E; type: cell-based; details: intact cells
T1 construct: expressed in transfected cells; host or cells: H1299 eIF4E-dTAG clone C3-1, eIF4E-dTAG depleted with dTAG^V-1 before compound
T1 sequence (P06730 whole entry L85R): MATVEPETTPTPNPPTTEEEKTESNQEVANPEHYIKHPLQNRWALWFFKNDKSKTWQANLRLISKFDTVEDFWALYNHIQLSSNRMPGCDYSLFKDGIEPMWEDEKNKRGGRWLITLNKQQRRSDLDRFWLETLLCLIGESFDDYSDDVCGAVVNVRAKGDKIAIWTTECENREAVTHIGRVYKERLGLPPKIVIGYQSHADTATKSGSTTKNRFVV
Protocol: Cells (1.5 × 10^6 cells) were plated into 75 cm^2 flasks and allowed to attached overnight. After treatment with compound 4 or 5 for 6 h, they were harvested by trypsinisation and washed x2 in ice cold PBS. Cells were resuspended in 1 ml of cold PBS supplemented with protease and phosphatase inhibitors (Fisher Scientific, cat#1861281). Resuspended cells were divided into 100 μl aliquots and centrifuged at 300 x g for 3 min at 4 °C. Following centrifugation, 75μl of supernatant was removed and cells resuspended in the remaining volume. Cell suspensions were heated at 40.9, 43.7, 48.1, 52.9, 57.6, 62.4, 67.2, 71.9, 76.3 and 79.1 °C for 3 mins followed by cooling at 20 °C for 3 min[25]. Suspensions were freeze-thawed twice using liquid nitrogen. Soluble fractions were separated from cell debris by centrifuging at 20,000 x g for 30 min at 4 °C. Samples were then analysed by Western Blot.
Supplementary Fig. 18. Comparison of compound 4 binding to wild-type or […]
Cells were treated with dTAGV-1 (1 μM) for 16 hr. Compound 4 (10 μM) or compound 5 (10 μM) was then added for 6 hrs.
Vi nculin was used for loading control. Blots are from one biological repeat. b […]
was used as loading control . c Cells were treated with dTAGV -1 (1 μM) for 16 hr.
Compound 4 (50 μM) or compound 5 (50 μM) was then added for 6 hrs. […]
following incubation at 48.1 °C. Vinculin was used for loaing control. All blots are […]

[1] = test system: eIF4E-dTAG (FKBP12^F36V-tagged eIF4E); experiment: Immunoblot of eIF4E-dTAG degradation in H1299 eIF4E-dTAG clones; type: cell-based, human; details: 6 h at ≈ 2–5x the IC50
Protocol: Treatment of isolated clones with the heterobifunctional dTAG^V−1 molecule recruits E3 ligase VHL to degrade eIF4E-dTAG. […] Parental H1299 cells and the selected eIF4E-dTAG clones were treated with 0.5 and 1 µM dTAG^V−1 for 6, 8, or 16 h. Vinculin was used as a loading control (n = 3 biological replicates). c Real-time cell growth measurements of the selected eIF4E-dTAG clones treated with 0.5 or 1 µM dTAG^V−1. Cell confluency (%) was monitored every 4 h over 6 days using Incucyte Zoom. Significance was determined using a one-way ANOVA with Tukey multiple comparisons test comparing dTAG^V−1 treatment with the control in each cell line. […] Significant differences between control and treated samples were determined using MSstats. […]
After seeding overnight in 6 well plates (Corning, cat#353046), cells were treated with compounds for the indicated times and concentration, harvested and the cell pellet lysed on ice in cell lysis buffer (Cell Signaling, cat#9803), supplemented with 1x Halt^TM protease inhibitor cocktail (Fisher Scientific, cat#78429) and cOmplete^TM protease inhibitor cocktail (Sigma-Aldrich, cat#11836153001) for 1 hr. Protein was quantified using BCA protein kit (Fisher Scientific, cat#23225). […] Quantitative densitometry analysis of protein bands was performed using Image J v1.53 software.

SMILES | antiproliferative activity (SW620 cells) | thermal stabilisation of L85R eIF4E (eIF4E L85R) | loss of eIF4E-dTAG [1]
CC[C@H](O[C@H](C)CO)c1ccc(-c2ccccc2F)cc1NCCO [Compound 4] | lacked on-target antiproliferative activity | showed evidence for compound 4 binding | 
CC[C@H](C(=O)N1CCCC[C@H]1C(=O)O[C@H](CCc1ccc(OC)c(OC)c1)c1ccccc1OCC(=O)NCCCCCCC(=O)N[C@H](C(=O)N1C[C@H](O)C[C@H]1C(=O)N[C@@H](C)c1ccc(-c2scnc2C)cc1)C(C)(C)C)c1cc(OC)c(OC)c(OC)c1 [dTAG^V-1] |  |  | near complete loss of eIF4E-dTAG
